# Key:
# CBP = target: T1, CBP (Homo sapiens, UniProt Q92793); assay: CBP degradation in 22Rv1 cells (5 h); type: cell-based; details: 22Rv1 cells, 5 h; for Dmax: 22Rv1, 5 h, read-out: CBP Degradation (22Rv1, 5 h) DCmax
# T1 construct: endogenous in cells; host or cells: 22Rv1 (ATCC CRL-2505) human prostate cancer cells
# Excerpt: (§1) Biological Assays. […] Cells with 3-8 passages after purchase were used in experiments.
# P300 = target: T2, P300 (Homo sapiens, UniProt Q09472); assay: P300 degradation in 22Rv1 cells (5 h); type: cell-based; details: 22Rv1 cells, 5 h; for Dmax: read-out: P300 Degradation (22Rv1, 5 h) DCmax
# T2 construct: endogenous in cells; host or cells: 22Rv1 (ATCC CRL-2505) human prostate cancer cells
# T2 sequence (Q09472 whole entry): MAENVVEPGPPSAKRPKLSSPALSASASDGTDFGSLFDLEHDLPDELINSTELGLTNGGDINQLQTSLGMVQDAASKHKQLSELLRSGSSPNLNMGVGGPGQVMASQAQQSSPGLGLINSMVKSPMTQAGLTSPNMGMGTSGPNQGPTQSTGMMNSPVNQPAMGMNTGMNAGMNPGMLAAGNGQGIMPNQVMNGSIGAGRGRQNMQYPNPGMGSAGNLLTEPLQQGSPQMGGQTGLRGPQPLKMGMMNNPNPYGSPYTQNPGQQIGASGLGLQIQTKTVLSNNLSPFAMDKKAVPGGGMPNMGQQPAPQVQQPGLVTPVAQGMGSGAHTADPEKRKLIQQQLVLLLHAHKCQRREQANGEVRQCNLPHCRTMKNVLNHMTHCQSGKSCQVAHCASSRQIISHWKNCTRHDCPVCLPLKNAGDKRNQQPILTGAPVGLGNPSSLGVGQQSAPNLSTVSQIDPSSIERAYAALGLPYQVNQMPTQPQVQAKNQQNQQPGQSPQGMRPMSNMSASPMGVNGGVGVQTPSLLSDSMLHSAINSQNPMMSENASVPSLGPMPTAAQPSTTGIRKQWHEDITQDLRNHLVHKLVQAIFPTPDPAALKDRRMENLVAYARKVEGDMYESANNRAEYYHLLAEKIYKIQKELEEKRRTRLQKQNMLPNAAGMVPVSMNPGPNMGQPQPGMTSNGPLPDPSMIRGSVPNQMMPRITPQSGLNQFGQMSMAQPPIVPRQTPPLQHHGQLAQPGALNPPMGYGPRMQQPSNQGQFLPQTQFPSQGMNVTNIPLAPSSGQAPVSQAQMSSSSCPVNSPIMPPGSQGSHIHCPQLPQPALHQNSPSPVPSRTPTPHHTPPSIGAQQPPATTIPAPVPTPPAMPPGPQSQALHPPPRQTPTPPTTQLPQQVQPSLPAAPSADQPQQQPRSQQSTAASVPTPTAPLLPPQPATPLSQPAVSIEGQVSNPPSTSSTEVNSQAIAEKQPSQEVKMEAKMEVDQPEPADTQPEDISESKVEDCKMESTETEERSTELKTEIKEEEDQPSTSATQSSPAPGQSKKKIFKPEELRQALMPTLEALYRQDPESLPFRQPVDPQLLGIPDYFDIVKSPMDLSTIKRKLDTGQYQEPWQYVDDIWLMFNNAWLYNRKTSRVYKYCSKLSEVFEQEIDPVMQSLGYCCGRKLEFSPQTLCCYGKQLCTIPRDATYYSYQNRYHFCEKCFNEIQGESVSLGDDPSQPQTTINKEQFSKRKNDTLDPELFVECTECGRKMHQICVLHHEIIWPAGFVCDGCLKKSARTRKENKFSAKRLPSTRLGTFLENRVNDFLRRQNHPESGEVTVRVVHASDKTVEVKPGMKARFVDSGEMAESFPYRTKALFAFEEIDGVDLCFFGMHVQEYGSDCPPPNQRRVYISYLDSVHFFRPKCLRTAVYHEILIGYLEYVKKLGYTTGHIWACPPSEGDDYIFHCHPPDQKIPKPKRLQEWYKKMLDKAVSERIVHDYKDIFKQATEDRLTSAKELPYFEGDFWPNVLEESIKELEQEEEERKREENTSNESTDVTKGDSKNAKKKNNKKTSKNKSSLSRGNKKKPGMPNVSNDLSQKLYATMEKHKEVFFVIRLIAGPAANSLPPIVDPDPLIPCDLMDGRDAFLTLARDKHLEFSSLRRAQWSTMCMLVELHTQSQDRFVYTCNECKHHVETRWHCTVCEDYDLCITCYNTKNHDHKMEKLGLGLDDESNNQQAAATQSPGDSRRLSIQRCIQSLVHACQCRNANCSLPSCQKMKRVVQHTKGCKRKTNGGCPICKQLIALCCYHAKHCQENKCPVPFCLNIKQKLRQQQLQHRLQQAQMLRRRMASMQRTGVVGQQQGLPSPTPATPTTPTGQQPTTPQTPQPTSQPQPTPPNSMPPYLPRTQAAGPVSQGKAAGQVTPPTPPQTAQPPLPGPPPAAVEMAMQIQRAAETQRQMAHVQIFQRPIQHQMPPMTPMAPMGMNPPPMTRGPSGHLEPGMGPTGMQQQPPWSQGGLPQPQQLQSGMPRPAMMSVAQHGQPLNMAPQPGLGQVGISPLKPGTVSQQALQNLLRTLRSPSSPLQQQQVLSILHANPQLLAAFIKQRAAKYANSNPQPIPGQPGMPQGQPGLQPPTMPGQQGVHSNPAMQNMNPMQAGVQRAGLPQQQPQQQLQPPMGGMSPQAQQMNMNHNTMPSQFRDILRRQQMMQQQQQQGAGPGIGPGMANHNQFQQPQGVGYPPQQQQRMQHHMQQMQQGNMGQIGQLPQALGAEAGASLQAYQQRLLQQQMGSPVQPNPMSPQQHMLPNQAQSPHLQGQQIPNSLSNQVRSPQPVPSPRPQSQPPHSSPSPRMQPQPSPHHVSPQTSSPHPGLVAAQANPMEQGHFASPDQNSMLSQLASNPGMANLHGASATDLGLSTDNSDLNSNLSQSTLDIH
# Excerpt: as §1
# HL60 = assay: Cell growth inhibition in HL60; type: cell-based; details: Homo sapiens, HL-60, HL60 cells; read-out: Cell Growth Inhibition (IC50) HL60
# 22Rv1 cells = assay: Cell growth inhibition assay (CellTiter-Glo) in 22Rv1; type: cell-based, human; details: Homo sapiens, 22Rv1, 96 h, 22Rv1 cells, 96 h incubation; read-out: Cell Growth Inhibition (IC50) 22Rv1
# Method in brief: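 22Rv1 prostate cancer cells (passages 3-8, DMEM with 10% FBS) were seeded at 4000 cells/well with compound, 3-fold dilutions from 10 μM final. After 96 h at 37° C and 5% CO2, growth was read by CellTiter-Glo 2.0 luminescence.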
# T1 sequence (Q92793 whole entry): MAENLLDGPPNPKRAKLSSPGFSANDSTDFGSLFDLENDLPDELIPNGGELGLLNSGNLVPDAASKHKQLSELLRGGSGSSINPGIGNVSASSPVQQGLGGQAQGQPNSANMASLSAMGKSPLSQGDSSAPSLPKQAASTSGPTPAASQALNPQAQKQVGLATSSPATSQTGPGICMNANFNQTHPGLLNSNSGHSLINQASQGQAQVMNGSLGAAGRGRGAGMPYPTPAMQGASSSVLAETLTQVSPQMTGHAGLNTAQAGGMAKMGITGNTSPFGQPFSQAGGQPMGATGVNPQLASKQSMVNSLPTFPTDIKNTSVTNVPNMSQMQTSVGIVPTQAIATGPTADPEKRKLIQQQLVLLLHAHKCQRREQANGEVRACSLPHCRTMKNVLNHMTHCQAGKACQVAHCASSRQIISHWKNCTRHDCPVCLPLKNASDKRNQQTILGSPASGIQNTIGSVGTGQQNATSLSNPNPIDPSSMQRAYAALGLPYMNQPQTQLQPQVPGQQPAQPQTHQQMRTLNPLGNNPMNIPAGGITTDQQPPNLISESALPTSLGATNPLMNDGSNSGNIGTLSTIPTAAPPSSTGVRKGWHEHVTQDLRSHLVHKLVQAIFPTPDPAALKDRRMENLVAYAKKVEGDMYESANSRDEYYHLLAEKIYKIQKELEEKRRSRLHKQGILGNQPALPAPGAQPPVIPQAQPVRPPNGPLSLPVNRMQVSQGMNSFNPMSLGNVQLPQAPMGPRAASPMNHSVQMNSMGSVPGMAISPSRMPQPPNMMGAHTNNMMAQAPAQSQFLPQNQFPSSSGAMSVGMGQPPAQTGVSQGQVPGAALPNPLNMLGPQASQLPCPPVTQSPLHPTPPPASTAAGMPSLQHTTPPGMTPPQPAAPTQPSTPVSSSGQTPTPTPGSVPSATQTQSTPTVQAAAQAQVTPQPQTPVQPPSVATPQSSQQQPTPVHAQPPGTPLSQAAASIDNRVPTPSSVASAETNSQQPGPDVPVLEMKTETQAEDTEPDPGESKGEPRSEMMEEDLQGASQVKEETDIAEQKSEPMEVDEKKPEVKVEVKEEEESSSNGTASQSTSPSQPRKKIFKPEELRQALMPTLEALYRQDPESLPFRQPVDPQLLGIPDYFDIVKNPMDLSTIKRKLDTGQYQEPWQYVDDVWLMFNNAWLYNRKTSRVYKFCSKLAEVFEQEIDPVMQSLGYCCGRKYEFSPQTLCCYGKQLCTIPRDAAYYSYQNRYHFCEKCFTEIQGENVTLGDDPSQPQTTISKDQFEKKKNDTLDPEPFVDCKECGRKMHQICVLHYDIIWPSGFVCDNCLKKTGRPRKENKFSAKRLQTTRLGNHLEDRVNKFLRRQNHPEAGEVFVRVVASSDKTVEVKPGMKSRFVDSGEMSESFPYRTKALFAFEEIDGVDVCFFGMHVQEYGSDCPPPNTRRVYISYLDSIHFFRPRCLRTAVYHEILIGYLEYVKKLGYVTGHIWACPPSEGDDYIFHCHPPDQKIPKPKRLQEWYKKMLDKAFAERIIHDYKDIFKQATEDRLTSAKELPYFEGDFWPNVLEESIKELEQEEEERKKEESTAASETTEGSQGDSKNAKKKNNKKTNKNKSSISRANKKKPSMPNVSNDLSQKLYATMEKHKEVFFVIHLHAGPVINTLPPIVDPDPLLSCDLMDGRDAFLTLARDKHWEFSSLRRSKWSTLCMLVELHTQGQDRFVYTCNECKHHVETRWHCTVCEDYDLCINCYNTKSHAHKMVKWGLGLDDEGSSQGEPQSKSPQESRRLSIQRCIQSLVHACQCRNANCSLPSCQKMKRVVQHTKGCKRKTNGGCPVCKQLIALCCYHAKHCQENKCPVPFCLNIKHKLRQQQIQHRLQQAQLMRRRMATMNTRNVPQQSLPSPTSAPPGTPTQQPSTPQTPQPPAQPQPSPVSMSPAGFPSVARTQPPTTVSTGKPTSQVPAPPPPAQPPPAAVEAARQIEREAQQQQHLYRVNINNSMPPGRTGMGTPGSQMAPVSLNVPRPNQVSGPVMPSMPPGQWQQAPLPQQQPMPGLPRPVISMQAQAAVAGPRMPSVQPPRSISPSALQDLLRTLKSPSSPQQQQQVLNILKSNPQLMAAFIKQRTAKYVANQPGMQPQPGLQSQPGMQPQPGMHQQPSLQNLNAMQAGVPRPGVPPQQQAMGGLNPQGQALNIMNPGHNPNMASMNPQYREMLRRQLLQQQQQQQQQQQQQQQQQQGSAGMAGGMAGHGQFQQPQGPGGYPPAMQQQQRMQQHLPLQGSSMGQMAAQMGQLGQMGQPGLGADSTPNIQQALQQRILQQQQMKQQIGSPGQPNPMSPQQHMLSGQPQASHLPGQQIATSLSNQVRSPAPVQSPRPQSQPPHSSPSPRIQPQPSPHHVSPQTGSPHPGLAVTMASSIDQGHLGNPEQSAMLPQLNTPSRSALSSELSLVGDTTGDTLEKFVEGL
Dmax (CBP),DC50 (CBP),DC50 (P300),Dmax (P300),IC50 (HL60),IC50 (22Rv1 cells),SMILES
< 50%,< 1 µM,> 1 µM,< 50%,> 10 µM,> 10 µM,"CC(=O)N1CCc2c(c(N3CCCc4cc(Cl)c(C(F)F)cc43)nn2C2CCN(C(=O)CN3CCc4cc5c(cc4C3)C(=O)N(C3CCC(=O)NC3=O)C5=O)CC2)C1 (stereo not drawn) [CP-018, 6-(2-(4-(5-acetyl-3-(6-chloro-7-(difluoromethyl)-3,4-dihydroquinolin-1(2H)-yl)-4,5,6,7-tetrahydro-1H-pyrazolo[4,3-c]pyridin-1-yl)piperidin-1-yl)-2-oxoethyl)-2-(2,6-dioxopiperidin-3-yl)-5,6,7,8-tetrahydro-1H-pyrrolo[3,4-g]isoquinoline-1,3(2H)-dione]"
< 50%,> 1 µM,> 1 µM,< 50%,< 1 µM,> 10 µM,"CC(=O)c1cc2c(cc1C(F)F)N(c1nn(C3CCN(C(=O)CN4Cc5cc6c(cc5C4)C(=O)N(C4CCC(=O)NC4=O)C6=O)CC3)c3c1CN(C(C)=O)CC3)CCC2 (stereo not drawn) [CP-019, 6-(2-(4-(5-acetyl-3-(6-acetyl-7-(difluoromethyl)-3,4-dihydroquinolin-1(2H)-yl)-4,5,6,7-tetrahydro-1H-pyrazolo[4,3-c]pyridin-1-yl)piperidin-1-yl)-2-oxoethyl)-2-(2,6-dioxopiperidin-3-yl)-6,7-dihydropyrrolo[3,4-f]isoindole-1,3(2H,5H)-dione]"
< 50%,> 1 µM,> 1 µM,< 50%,< 1 µM,> 10 µM,"CC(=O)c1cc2c(cc1C(F)F)N(c1nn(C3CCN(C(=O)CN4CCc5cc6c(cc5C4)C(=O)N(C4CCC(=O)NC4=O)C6=O)CC3)c3c1CN(C(C)=O)CC3)CCC2 (stereo not drawn) [CP-020, 6-(2-(4-(5-acetyl-3-(6-acetyl-7-(difluoromethyl)-3,4-dihydroquinolin-1(2H)-yl)-4,5,6,7-tetrahydro-1H-pyrazolo[4,3-c]pyridin-1-yl)piperidin-1-yl)-2-oxoethyl)-2-(2,6-dioxopiperidin-3-yl)-5,6,7,8-tetrahydro-1H-pyrrolo[3,4-g]isoquinoline-1,3(2H)-dione]"
> 90%,< 0.01 µM,< 0.01 µM,> 70%,< 0.1 µM,< 1 µM,"CC(=O)N1CCc2c(c(N3CCCc4cc(C5CCCCC5)c(C(F)F)cc43)nn2C2CCN(C(=O)CN3Cc4cc5c(cc4C3)C(=O)N(C3CCC(=O)NC3=O)C5=O)CC2)C1 (stereo not drawn) [CP-021, 6-(2-(4-(5-acetyl-3-(6-cyclohexyl-7-(difluoromethyl)-3,4-dihydroquinolin-1(2H)-yl)-4,5,6,7-tetrahydro-1H-pyrazolo[4,3-c]pyridin-1-yl)piperidin-1-yl)-2-oxoethyl)-2-(2,6-dioxopiperidin-3-yl)-6,7-dihydropyrrolo[3,4-f]isoindole-1,3(2H,5H)-dione]"
> 90%,< 0.01 µM,< 0.01 µM,> 90%,< 0.1 µM,< 0.1 µM,"CC(=O)N1CCc2c(c(N3CCCc4cc(-c5ccccc5)c(C(F)F)cc43)nn2C2CCN(C(=O)CN3Cc4cc5c(cc4C3)C(=O)N(C3CCC(=O)NC3=O)C5=O)CC2)C1 (stereo not drawn) [CP-022, 6-(2-(4-(5-acetyl-3-(7-(difluoromethyl)-6-phenyl-3,4-dihydroquinolin-1(2H)-yl)-4,5,6,7-tetrahydro-1H-pyrazolo[4,3-c]pyridin-1-yl)piperidin-1-yl)-2-oxoethyl)-2-(2,6-dioxopiperidin-3-yl)-6,7-dihydropyrrolo[3,4-f]isoindole-1,3(2H,5H)-dione]"
> 90%,< 0.01 µM,< 0.01 µM,> 70%,< 0.1 µM,< 1 µM,"CC(=O)N1CCc2c(c(N3CCCc4cc(-c5ccc(F)cc5)c(C(F)F)cc43)nn2C2CCN(C(=O)CN3Cc4cc5c(cc4C3)C(=O)N(C3CCC(=O)NC3=O)C5=O)CC2)C1 (stereo not drawn) [CP-023, 6-(2-(4-(5-acetyl-3-(7-(difluoromethyl)-6-(4-fluorophenyl)-3,4-dihydroquinolin-1(2H)-yl)-4,5,6,7-tetrahydro-1H-pyrazolo[4,3-c]pyridin-1-yl)piperidin-1-yl)-2-oxoethyl)-2-(2,6-dioxopiperidin-3-yl)-6,7-dihydropyrrolo[3,4-f]isoindole-1,3(2H,5H)-dione]"
> 90%,< 0.01 µM,< 0.01 µM,> 70%,< 0.1 µM,< 1 µM,"CC(=O)N1CCc2c(c(N3CCCc4cc(-c5cccs5)c(C(F)F)cc43)nn2C2CCN(C(=O)CN3Cc4cc5c(cc4C3)C(=O)N(C3CCC(=O)NC3=O)C5=O)CC2)C1 (stereo not drawn) [CP-024, 6-(2-(4-(5-acetyl-3-(7-(difluoromethyl)-6-(thiophen-2-yl)-3,4-dihydroquinolin-1(2H)-yl)-4,5,6,7-tetrahydro-1H-pyrazolo[4,3-c]pyridin-1-yl)piperidin-1-yl)-2-oxoethyl)-2-(2,6-dioxopiperidin-3-yl)-6,7-dihydropyrrolo[3,4-f]isoindole-1,3(2H,5H)-dione]"
< 50%,< 0.01 µM,< 0.01 µM,> 70%,< 0.1 µM,< 1 µM,"CC(=O)N1CCc2c(c(N3CCCc4cc(CCC5CC5)c(C(F)F)cc43)nn2C2CCN(C(=O)CN3Cc4cc5c(cc4C3)C(=O)N(C3CCC(=O)NC3=O)C5=O)CC2)C1 (stereo not drawn) [CP-025, 6-(2-(4-(5-acetyl-3-(6-(2-cyclopropylethyl)-7-(difluoromethyl)-3,4-dihydroquinolin-1(2H)-yl)-4,5,6,7-tetrahydro-1H-pyrazolo[4,3-c]pyridin-1-yl)piperidin-1-yl)-2-oxoethyl)-2-(2,6-dioxopiperidin-3-yl)-6,7-dihydropyrrolo[3,4-f]isoindole-1,3(2H,5H)-dione]"
> 90%,< 0.01 µM,< 0.01 µM,> 70%,< 0.1 µM,< 1 µM,"CC(=O)N1CCc2c(c(N3CCCc4cc(CCC(C)C)c(C(F)F)cc43)nn2C2CCN(C(=O)CN3Cc4cc5c(cc4C3)C(=O)N(C3CCC(=O)NC3=O)C5=O)CC2)C1 (stereo not drawn) [CP-026, 6-(2-(4-(5-acetyl-3-(7-(difluoromethyl)-6-isopentyl-3,4-dihydroquinolin-1(2H)-yl)-4,5,6,7-tetrahydro-1H-pyrazolo[4,3-c]pyridin-1-yl)piperidin-1-yl)-2-oxoethyl)-2-(2,6-dioxopiperidin-3-yl)-6,7-dihydropyrrolo[3,4-f]isoindole-1,3(2H,5H)-dione]"
> 90%,< 0.01 µM,< 0.01 µM,> 90%,< 0.1 µM,< 0.1 µM,"CC(=O)N1CCc2c(c(N3CCCc4cc(-c5cnn(C)c5)c(C(F)F)cc43)nn2C2CCC(N3CCc4cc5c(cc4C3)C(=O)N(C3CCC(=O)NC3=O)C5=O)CC2)C1 (stereo not drawn) [CP-038, 6-(4-(5-acetyl-3-(7-(difluoromethyl)-6-(1-methyl-1H-pyrazol-4-yl)-3,4-dihydroquinolin-1(2H)-yl)-4,5,6,7-tetrahydro-1H-pyrazolo[4,3-c]pyridin-1-yl)cyclohexyl)-2-(2,6-dioxopiperidin-3-yl)-5,6,7,8-tetrahydro-1H-pyrrolo[3,4-g]isoquinoline-1,3(2H)-dione]"
> 90%,< 0.01 µM,< 0.01 µM,> 90%,< 0.1 µM,< 1 µM,"CC(=O)N1CCc2c(c(N3CCCc4cc(-c5cnn(C)c5)c(C(F)F)cc43)nn2C[C@H]2CC[C@H](N3CCc4cc5c(cc4C3)C(=O)N(C3CCC(=O)NC3=O)C5=O)CC2)C1 (stereo partly drawn) [CP-041, 6-(4-((5-acetyl-3-(7-(difluoromethyl)-6-(1-methyl-1H-pyrazol-4-yl)-3,4-dihydroquinolin-1(2H)-yl)-4,5,6,7-tetrahydro-1H-pyrazolo[4,3-c]pyridin-1-yl)methyl)cyclohexyl)-2-(2,6-dioxopiperidin-3-yl)-5,6,7,8-tetrahydro-1H-pyrrolo[3,4-g]isoquinoline-1,3(2H)-dione]"
> 90%,< 0.01 µM,< 0.01 µM,> 70%,< 0.1 µM,< 0.1 µM,"CC(=O)N1CCc2c(c(N3CCCc4cc(-c5cnn(C)c5)c(C(F)F)cc43)nn2C2CCC(CCN3CCc4cc5c(cc4C3)C(=O)N(C3CCC(=O)NC3=O)C5=O)CC2)C1 (stereo not drawn) [CP-045, 6-(2-(4-(5-acetyl-3-(7-(difluoromethyl)-6-(1-methyl-1H-pyrazol-4-yl)-3,4-dihydroquinolin-1(2H)-yl)-4,5,6,7-tetrahydro-1H-pyrazolo[4,3-c]pyridin-1-yl)cyclohexyl)ethyl)-2-(2,6-dioxopiperidin-3-yl)-5,6,7,8-tetrahydro-1H-pyrrolo[3,4-g]isoquinoline-1,3(2H)-dione]"
> 90%,< 0.01 µM,< 0.01 µM,> 90%,< 0.1 µM,< 0.1 µM,"CC(=O)N1CCc2c(c(N3CCCc4cc(-c5cnn(C)c5)c(C(F)F)cc43)nn2[C@H]2CC[C@H](CN3Cc4cc5c(cc4C3)C(=O)N(C3CCC(=O)NC3=O)C5)CC2)C1 (stereo partly drawn) [CP-048, 3-(6-(((1r,4r)-4-(5-acetyl-3-(7-(difluoromethyl)-6-(1-methyl-1H-pyrazol-4-yl)-3,4-dihydroquinolin-1(2H)-yl)-4,5,6,7-tetrahydro-1H-pyrazolo[4,3-c]pyridin-1-yl)cyclohexyl)methyl)-1-oxo-3,5,6,7-tetrahydropyrrolo[3,4-f]isoindol-2(1H)-yl)piperidine-2,6-dione]"
